Laboratory results from patent US20200231614A1, “PSMA TARGETED RADIOHALOGENATED UREAS FOR CANCER RADIOTHERAPY” (THE JOHNS HOPKINS UNIVERSITY, priority 2015, published 2020).
Where two headings read alike, the source gives them in different places.

System: PSMA + PC-3 PiP and PSMA − PC-3 flu tumor xenografts
Conditions: for Biodistribution: PC-3 PiP: PSMA+ tumor xenograft; for Biodistribution: PC-3 flu: PSMA− tumor xenograft

For `O=C(O)CC[C@H](NC(=O)N[C@@H](CSCc1ccc([125I])cc1)C(=O)O)C(=O)O` [[^125I] labeled DCIBC, (S)-2-(3-((R)-1-carboxy-2-(4-[^125I]iodobenzylthio)ethyl)ureido)-pentanedioic Acid], the “Biodistribution: Lrg Int.” value (1 H post-injection) was 1.2 ± 0.1 % ID/g, the “Biodistribution: PSMA + tumor” value (1 H post-injection) was 8.0 ± 1.3 % ID/g and the “Biodistribution: PSMA − tumor” value (1 H post-injection) was 1.3 ± 0.2 % ID/g. The “Biodistribution: Sm int.” value (1 H post-injection) was 1.2 ± 0.3 % ID/g, the “Biodistribution: blood” value (1 H post-injection) was 5.8 ± 2.3 % ID/g and the “Biodistribution: heart” value (1 H post-injection) was 1.5 ± 0.2 % ID/g. For the same molecule, the “Biodistribution: kidney” value (1 H post-injection) was 77 ± 17 % ID/g, the “Biodistribution: liver” value (1 H post-injection) was 20 ± 4 % ID/g and the “Biodistribution: lung” value (1 H post-injection) was 2.2 ± 0.4 % ID/g. For the same molecule, the “Biodistribution: muscle” value (1 H post-injection) was 1.0 ± 0.8 % ID/g, the “Biodistribution: spleen” value (1 H post-injection) was 5.1 ± 2.2 % ID/g and the “Biodistribution: Lrg Int.” value (2 H post-injection) was 1.2 ± 0.5 % ID/g. For the same molecule, the “Biodistribution: PSMA + tumor” value (2 H post-injection) was 5.6 ± 1.3 % ID/g, the “Biodistribution: PSMA − tumor” value (2 H post-injection) was 0.9 ± 0.1 % ID/g and the “Biodistribution: Sm int.” value (2 H post-injection) was 1.1 ± 0.2 % ID/g. For the same molecule, the “Biodistribution: blood” value (2 H post-injection) was 4.9 ± 2.6 % ID/g, the “Biodistribution: heart” value (2 H post-injection) was 1.1 ± 0.2 % ID/g and the “Biodistribution: kidney” value (2 H post-injection) was 30 ± 8 % ID/g. For the same molecule, the “Biodistribution: liver” value (2 H post-injection) was 17 ± 4 % ID/g, the “Biodistribution: lung” value (2 H post-injection) was 1.9 ± 0.5 % ID/g and the “Biodistribution: muscle” value (2 H post-injection) was 0.5 ± 0.2 % ID/g. For the same molecule, the “Biodistribution: spleen” value (2 H post-injection) was 3.2 ± 0.6 % ID/g, the “Biodistribution: Lrg Int.” value (5 H post-injection) was 2.7 ± 1.9 % ID/g and the “Biodistribution: PSMA + tumor” value (5 H post-injection) was 5.5 ± 0.6 % ID/g. For the same molecule, the “Biodistribution: PSMA − tumor” value (5 H post-injection) was 1.0 ± 0.3 % ID/g, the “Biodistribution: Sm Int.” value (5 H post-injection) was 1.7 ± 1.5 % ID/g and the “Biodistribution: blood” value (5 H post-injection) was 3.3 ± 1.1 % ID/g. For the same molecule, the “Biodistribution: heart” value (5 H post-injection) was 0.9 ± 0.5 % ID/g, the “Biodistribution: kidney” value (5 H post-injection) was 18 ± 6 % ID/g and the “Biodistribution: liver” value (5 H post-injection) was 17 ± 1 % ID/g. For the same molecule, the “Biodistribution: lung” value (5 H post-injection) was 1.0 ± 0.5 % ID/g, the “Biodistribution: muscle” value (5 H post-injection) was 0.4 ± 0.2 % ID/g and the “Biodistribution: spleen” value (5 H post-injection) was 3.9 ± 1.1 % ID/g.

For `N=C(N)NCc1ccc(C(=O)NCCCC[C@H](NC(=O)N[C@@H](CCC(=O)O)C(=O)O)C(=O)O)cc1[131I]` [[^131I] labeled 7 (PSMA-620)], the “Biodistribution: Sm int.” value (1 H post-injection) was 3.14 ± 0.66 % ID/g, the “Biodistribution: bladder” value (1 H post-injection) was 1.99 ± 0.50 % ID/g and the “Biodistribution: blood” value (1 H post-injection) was 0.95 ± 0.15 % ID/g. For the same molecule, the “Biodistribution: heart” value (1 H post-injection) was 1.29 ± 0.37 % ID/g, the “Biodistribution: kidney” value (1 H post-injection) was 103 ± 24.0 % ID/g and the “Biodistribution: liver” value (1 H post-injection) was 8.25 ± 2.47 % ID/g. For the same molecule, the “Biodistribution: lung” value (1 H post-injection) was 3.29 ± 0.56 % ID/g, the “Biodistribution: muscle” value (1 H post-injection) was 0.56 ± 0.05 % ID/g and the “Biodistribution: spleen” value (1 H post-injection) was 17.1 ± 3.71 % ID/g. For the same molecule, the “Biodistribution: stomach” value (1 H post-injection) was 2.01 ± 0.41 % ID/g, the “Biodistribution: thyroid” value (1 H post-injection) was 0.79 ± 0.17 % ID/g and the “Biodistribution: Sm int.” value (2 H post-injection) was 2.29 ± 0.69 % ID/g. The “Biodistribution: bladder” value (2 H post-injection) was 1.65 ± 0.48 % ID/g, the “Biodistribution: blood” value (2 H post-injection) was 0.58 ± 0.08 % ID/g and the “Biodistribution: heart” value (2 H post-injection) was 0.89 ± 0.18 % ID/g. For the same molecule, the “Biodistribution: kidney” value (2 H post-injection) was 89.0 ± 5.18 % ID/g, the “Biodistribution: liver” value (2 H post-injection) was 5.62 ± 1.17 % ID/g and the “Biodistribution: lung” value (2 H post-injection) was 1.99 ± 0.23 % ID/g. The “Biodistribution: muscle” value (2 H post-injection) was 0.34 ± 0.08 % ID/g, the “Biodistribution: spleen” value (2 H post-injection) was 6.81 ± 3.20 % ID/g and the “Biodistribution: stomach” value (2 H post-injection) was 2.55 ± 0.69 % ID/g. For the same molecule, the “Biodistribution: thyroid” value (2 H post-injection) was 0.77 ± 0.25 % ID/g, the “Biodistribution: Sm int.” value (4 H post-injection) was 1.32 ± 0.68 % ID/g and the “Biodistribution: bladder” value (4 H post-injection) was 1.96 ± 1.10 % ID/g. For the same molecule, the “Biodistribution: blood” value (4 H post-injection) was 0.30 ± 0.08 % ID/g, the “Biodistribution: heart” value (4 H post-injection) was 0.75 ± 0.34 % ID/g and the “Biodistribution: kidney” value (4 H post-injection) was 77.7 ± 38.8 % ID/g. For the same molecule, the “Biodistribution: liver” value (4 H post-injection) was 4.37 ± 2.96 % ID/g, the “Biodistribution: lung” value (4 H post-injection) was 1.69 ± 0.67 % ID/g and the “Biodistribution: muscle” value (4 H post-injection) was 0.23 ± 0.10 % ID/g. For the same molecule, the “Biodistribution: spleen” value (4 H post-injection) was 3.63 ± 2.40 % ID/g, the “Biodistribution: stomach” value (4 H post-injection) was 2.87 ± 0.55 % ID/g and the “Biodistribution: thyroid” value (4 H post-injection) was 0.75 ± 0.17 % ID/g. The “Biodistribution: Sm int.” value (14 H post-injection) was 0.42 ± 0.12 % ID/g, the “Biodistribution: bladder” value (14 H post-injection) was 0.74 ± 0.35 % ID/g and the “Biodistribution: blood” value (14 H post-injection) was 0.16 ± 0.04 % ID/g. The “Biodistribution: heart” value (14 H post-injection) was 0.48 ± 0.12 % ID/g, the “Biodistribution: kidney” value (14 H post-injection) was 17.2 ± 10.7 % ID/g and the “Biodistribution: liver” value (14 H post-injection) was 0.60 ± 0.28 % ID/g. The “Biodistribution: lung” value (14 H post-injection) was 1.02 ± 0.27 % ID/g, the “Biodistribution: muscle” value (14 H post-injection) was 0.10 ± 0.02 % ID/g and the “Biodistribution: spleen” value (14 H post-injection) was 1.27 ± 0.42 % ID/g. For the same molecule, the “Biodistribution: stomach” value (14 H post-injection) was 2.24 ± 1.08 % ID/g, the “Biodistribution: thyroid” value (14 H post-injection) was 0.74 ± 0.27 % ID/g and the “Biodistribution: Sm int.” value (21 H post-injection) was 0.31 ± 0.07 % ID/g. The “Biodistribution: bladder” value (21 H post-injection) was 0.56 ± 0.37 % ID/g, the “Biodistribution: blood” value (21 H post-injection) was 0.09 ± 0.07 % ID/g and the “Biodistribution: heart” value (21 H post-injection) was 0.40 ± 0.11 % ID/g. The “Biodistribution: kidney” value (21 H post-injection) was 7.52 ± 1.82 % ID/g, the “Biodistribution: liver” value (21 H post-injection) was 0.33 ± 0.06 % ID/g and the “Biodistribution: lung” value (21 H post-injection) was 1.00 ± 0.21 % ID/g. For the same molecule, the “Biodistribution: muscle” value (21 H post-injection) was 0.09 ± 0.01 % ID/g, the “Biodistribution: spleen” value (21 H post-injection) was 0.93 ± 0.37 % ID/g and the “Biodistribution: stomach” value (21 H post-injection) was 1.91 ± 0.95 % ID/g. The “Biodistribution: thyroid” value (21 H post-injection) was 0.88 ± 0.13 % ID/g, the “Biodistribution: PC-3 PiP” value (1 H post-injection) was 16.5 ± 4.78 % ID/g and the “Biodistribution: PC-3 PiP” value (2 H post-injection) was 17.2 ± 4.34 % ID/g. For the same molecule, the “Biodistribution: PC-3 PiP” value (4 H post-injection) was 18.3 ± 4.27 % ID/g, the “Biodistribution: PC-3 PiP” value (14 H post-injection) was 15.8 ± 2.42 % ID/g and the “Biodistribution: PC-3 PiP” value (21 H post-injection) was 13.6 ± 3.33 % ID/g. For the same molecule, the “Biodistribution: PC-3 flu” value (1 H post-injection) was 1.09 ± 0.21 % ID/g, the “Biodistribution: PC-3 flu” value (2 H post-injection) was 0.80 ± 0.11 % ID/g and the “Biodistribution: PC-3 flu” value (4 H post-injection) was 0.57 ± 0.21 % ID/g. The “Biodistribution: PC-3 flu” value (14 H post-injection) was 0.28 ± 0.10 % ID/g and the “Biodistribution: PC-3 flu” value (21 H post-injection) was 0.20 ± 0.08 % ID/g.
